Assay results: EPA's ToxRefDB 2

Tests used:
mouse [1] = conditions: Subchronic oral toxicity in rodents, cd1, Feed, dose end: 13 week, group: systemic, systemic / in life observation / body weight / body weight gain + systemic / organ weight / liver / absolute + systemic / organ weight / …
rat [2] = conditions: Subchronic oral toxicity in rodents, wistar, Feed, dose end: 13 week, group: systemic
rabbit [3] = conditions: Prenatal developmental toxicity study, new zealand white, Oral, Gavage/Intubation, dose end: 18 GD
rat [4] = conditions: Sub-acute repeat dose toxicity; wistar; Oral; Feed; dose end: 4 week; group: systemic; systemic / clinical chemistry / lactic acid dehydrogenase (ldh) / lactic acid dehydrogenase (ldh) + systemic / organ weight / liver / …
rat [5] = conditions: Sub-acute repeat dose toxicity, wistar, Oral, Feed, dose end: 4 week, group: systemic
rat [6] = conditions: Subchronic oral toxicity in rodents, wistar, Feed, dose end: 13 week, group: systemic; remark: listed apart in the source
rat [7] = conditions: Subchronic oral toxicity in rodents, wistar, Feed, dose end: 13 week, group: systemic, systemic / clinical chemistry / calcium / calcium + systemic / clinical chemistry / creatinine / creatinine + systemic / clinical chemistry…
mouse [8] = conditions: Carcinogenicity; cd1; Oral; Feed; dose end: 88 week; group: systemic; systemic / pathology microscopic / liver / hypertrophy + systemic / pathology microscopic / liver / inflammation + systemic / pathology …
rat [9] = conditions: Sub-acute dermal toxicity, wistar, Topical, dose end: 28 day, group: systemic, systemic / clinical chemistry / cholesterol / cholesterol + systemic / clinical chemistry / globulins / globulins + systemic / clinical …
rabbit [10] = conditions: Sub-acute dermal toxicity, new zealand white, Topical, dose end: 21 day, group: systemic, systemic / in life observation / clinical signs / desquamation + systemic / in life observation / clinical signs / erythema + systemic / …
dog [11] = conditions: Subchronic oral toxicity in nonrodent, beagle, Feed, dose end: 13 week, group: systemic, systemic / clinical chemistry / alkaline phosphatase (alp/alk) / alkaline phosphatase (alp/alk) + systemic / clinical chemistry / gamma …
dog [12] = conditions: Chronic toxicity; beagle; Oral; Feed; dose end: 52 week; group: systemic; systemic / clinical chemistry / cytochrome p450, nos / cytochrome p450, nos + systemic / clinical chemistry / glutathione-s-transferase / …
rabbit [13] = conditions: Prenatal developmental toxicity study, new zealand white, Oral, Gavage/Intubation, dose end: 18 GD; remark: listed apart in the source
rat [14] = conditions: Prenatal developmental toxicity study, wistar, Oral, Gavage/Intubation, dose end: 15 GD
mouse [15] = conditions: Multigenerational reproductive toxicity study, Other, Oral, Feed, dose end: 90 day
rat [16] = conditions: Combined chronic toxicity/carcinogenicity, fischer, Oral, Feed, dose end: 2 year, group: systemic
mouse [17] = conditions: Reproduction/developmental toxicity screening test, other, Injection, Subcutaneous, dose end: 1 PND
mouse [18] = conditions: Carcinogenicity; other; Oral; Water; dose end: 18 week; group: systemic; systemic / pathology microscopic / lung / mixed tumor nos
mouse [19] = conditions: Subchronic oral toxicity in rodents, BALB/c, Water, dose end: 141 day, group: systemic, systemic / pathology microscopic / liver / hemangioma + systemic / pathology microscopic / liver / hemangiosarcoma + systemic / pathology …
[20] = systemic / in life observation / body weight / body weight gain + systemic / clinical chemistry / alanine aminotransferase (alt/sgpt) / …
[21] = group: developmental, developmental / developmental malformation / general / [other] + developmental / developmental malformation / limb / malrotated
[22] = group: maternal, systemic / in life observation / body weight / body weight gain
[23] = group: maternal, systemic / in life observation / body weight / body weight gain + systemic / in life observation / food consumption / food consumption
[24] = systemic / pathology microscopic / liver / lipid deposition + systemic / pathology microscopic / liver / vacuolization
[25] = systemic / pathology microscopic / liver / lipid deposition + systemic / pathology microscopic / liver / vacuolization + systemic / clinical…
[26] = systemic / pathology microscopic / thyroid gland / hypertrophy
[27] = group: developmental, systemic / in life observation / body weight / fetal weight + developmental / developmental malformation / bone / [other] + developmental / …
[28] = group: maternal, reproductive / reproductive performance / postimplantation loss / postimplantation loss + systemic / in life observation / body weight / …
[29] = group: developmental, developmental / developmental malformation / bone / full supernumerary
[30] = group: developmental, developmental / developmental malformation / bone / full supernumerary + developmental / developmental malformation / bone / incomplete …
[31] = group: maternal, systemic / in life observation / body weight / body weight gain + reproductive / reproductive performance / postimplantation loss / …
[32] = group: parental, systemic / in life observation / mortality / mortality
[33] = group: reproductive, reproductive / reproductive performance / fertility / fertility + reproductive / reproductive performance / mating / mating + reproductive…
[34] = systemic / pathology microscopic / kidney / nephropathy + systemic / pathology microscopic / liver / cytomegaly + systemic / pathology …
[35] = systemic / pathology microscopic / liver / cytomegaly + systemic / in life observation / food consumption / food consumption
[36] = group: developmental, developmental / offspring survival late / [other] / [other]
[37] = group: maternal, reproductive / offspring survival early / dead fetuses / dead fetuses
[38] = group: offspring, systemic / pathology microscopic / liver / [other] + systemic / pathology gross / full gross necropsy / hemangiosarcoma
[39] = group: offspring, systemic / pathology microscopic / liver / [other] + systemic / pathology microscopic / liver / hemangioma + systemic / pathology …

Compound `CC(C1CC1)C(O)(Cn1cncn1)c1ccc(Cl)cc1` (stereo not given) [Cyproconazole] has an LEL (mouse [1]) of 43.8 mg/kg/day, an LOAEL (mouse [1]) of 43.8 mg/kg/day and an NEL (mouse [1]) of 2.2 mg/kg/day. For the same compound, the NOAEL (mouse [1]) was 2.2 mg/kg/day, the LOAEL (rat [2]; systemic / in life observation / body weight / body weight gain) was 27.3 mg/kg/day and the NEL (rat [2]; [20]) was 1.5 mg/kg/day. For the same compound, the NOAEL (rat [2]; [20]) was 1.5 mg/kg/day, the LEL (rat [2]; systemic / in life observation / body weight / body weight gain + systemic / in life observation / food consumption / food efficiency + …) was 27.3 mg/kg/day and the LOAEL (rabbit [3]; group: developmental, developmental / developmental malformation / general / [other]) was 10 mg/kg/day. It also gave an LEL (rabbit [3]; [21]) of 10 mg/kg/day, an NEL (rabbit [3]; [21]) of 2 mg/kg/day and an NOAEL (rabbit [3]; [21]) of 2 mg/kg/day. The LOAEL (rabbit [3]; [22]) was 50 mg/kg/day, the LEL (rabbit [3]; [23]) was 50 mg/kg/day and the NEL (rabbit [3]; [23]) was 10 mg/kg/day. It also gave an NOAEL (rabbit [3]; [23]) of 10 mg/kg/day, an LEL (rat [4]) of 25.3 mg/kg/day and an LOAEL (rat [4]) of 25.3 mg/kg/day. For the same compound, the NEL (rat [4]) was 8.14 mg/kg/day, the NOAEL (rat [4]) was 8.14 mg/kg/day and the LEL (rat [5]; [24]) was 527 mg/kg/day. It also gave an LOAEL (rat [5]; [24]) of 527 mg/kg/day, an NEL (rat [5]; [25]) of 155 mg/kg/day and an NOAEL (rat [5]; [25]) of 155 mg/kg/day. It also gave an LOAEL (rat [6]; systemic / organ weight / liver / absolute + systemic / organ weight / liver / relative to body weight + systemic / pathology microscopic / …) of 24.7 mg/kg/day, an LEL (rat [6]; [26]) of 1.4 mg/kg/day and an NEL (rat [6]; [26]) of under 1.4 mg/kg/day. The NOAEL (rat [6]; systemic / pathology microscopic / thyroid gland / hypertrophy + systemic / organ weight / liver / absolute + systemic / organ weight / …) was 1.4 mg/kg/day, the LEL (rat [7]) was 1.5 mg/kg/day and the LOAEL (rat [7]) was over 21.4 mg/kg/day. For the same compound, the NEL (rat [7]) was under 1.5 mg/kg/day, the NOAEL (rat [7]) was at least 21.4 mg/kg/day and the LEL (mouse [8]) was 13.2 mg/kg/day. For the same compound, the LOAEL (mouse [8]) was 13.2 mg/kg/day, the NEL (mouse [8]) was 1.84 mg/kg/day and the NOAEL (mouse [8]) was 1.84 mg/kg/day. It also gave an LEL (rat [9]) of 100 mg/kg/day, an LOAEL (rat [9]) of 100 mg/kg/day and an NEL (rat [9]) of 10 mg/kg/day. The NOAEL (rat [9]) was 10 mg/kg/day, the LEL (rabbit [10]) was 1000 mg/kg/day and the LOAEL (rabbit [10]) was 1000 mg/kg/day. For the same compound, the NEL (rabbit [10]) was 300 mg/kg/day, the NOAEL (rabbit [10]) was 300 mg/kg/day and the LEL (dog [11]) was 20 mg/kg/day. The LOAEL (dog [11]) was 20 mg/kg/day, the NEL (dog [11]) was 4 mg/kg/day and the NOAEL (dog [11]) was 4 mg/kg/day. For the same compound, the LEL (dog [12]) was 3.2 mg/kg/day, the LOAEL (dog [12]) was 3.2 mg/kg/day and the NEL (dog [12]) was 1 mg/kg/day. It also gave an NOAEL (dog [12]) of 1 mg/kg/day, an LOAEL (rabbit [13]; group: developmental, systemic / in life observation / body weight / fetal weight) of 60 mg/kg/day and an LEL (rabbit [13]; [27]) of 60 mg/kg/day. It also gave an NEL (rabbit [13]; [27]) of 10 mg/kg/day, an NOAEL (rabbit [13]; [27]) of 10 mg/kg/day and an LEL (rabbit [13]; [28]) of 60 mg/kg/day. For the same compound, the LOAEL (rabbit [13]; [28]) was 60 mg/kg/day, the NEL (rabbit [13]; [28]) was 10 mg/kg/day and the NOAEL (rabbit [13]; [28]) was 10 mg/kg/day. It also gave an LEL (rat [14]; [29]) of 12 mg/kg/day, an LOAEL (rat [14]; [29]) of 12 mg/kg/day and an NEL (rat [14]; [30]) of 6 mg/kg/day. The NOAEL (rat [14]; [30]) was 6 mg/kg/day, the LEL (rat [14]; [22]) was 12 mg/kg/day and the LOAEL (rat [14]; [22]) was 12 mg/kg/day. The NEL (rat [14]; [31]) was 6 mg/kg/day and the NOAEL (rat [14]; [31]) was 6 mg/kg/day.

Compound `ClC1(Cl)C2(Cl)C3(Cl)C4(Cl)C(Cl)(Cl)C5(Cl)C3(Cl)C1(Cl)C5(Cl)C24Cl` (stereo not given) [Mirex] has an LEL (mouse [15]; [32]) of 0.25 mg/kg/day, an LOAEL (mouse [15]; [32]) of over 0.25 mg/kg/day and an NEL (mouse [15]; [32]) of under 0.25 mg/kg/day. It also gave an NOAEL (mouse [15]; [32]) of at least 0.25 mg/kg/day, an LEL (mouse [15]; [33]) of 0.25 mg/kg/day and an LOAEL (mouse [15]; [33]) of over 0.25 mg/kg/day. It also gave an NEL (mouse [15]; [33]) of under 0.25 mg/kg/day, an NOAEL (mouse [15]; [33]) of at least 0.25 mg/kg/day and an LOAEL (rat [16]; [34]) of 1.95 mg/kg/day. The NOAEL (rat [16]; [34]) was 0.75 mg/kg/day, the LEL (rat [16]; [35]) was 0.007 mg/kg/day and the NEL (rat [16]; [35]) was under 0.007 mg/kg/day.

Compound `CN(C)N=O` [N-Nitrosodimethylamine] has an LEL (mouse [17]; [36]) of 1 mg/kg/day, an LOAEL (mouse [17]; [36]) of over 50 mg/kg/day and an NEL (mouse [17]; [36]) of under 1 mg/kg/day. For the same compound, the NOAEL (mouse [17]; [36]) was at least 50 mg/kg/day, the LEL (mouse [17]; [37]) was 20 mg/kg/day and the LOAEL (mouse [17]; [37]) was over 50 mg/kg/day. For the same compound, the NEL (mouse [17]; [37]) was 10 mg/kg/day, the NOAEL (mouse [17]; [37]) was at least 50 mg/kg/day and the LEL (mouse [17]; [38]) was 1 mg/kg/day. The NEL (mouse [17]; [38]) was under 1 mg/kg/day, the LOAEL (mouse [17]; [39]) was over 50 mg/kg/day and the NOAEL (mouse [17]; [39]) was at least 50 mg/kg/day. The LEL (mouse [18]) was 0.0667 mg/kg/day, the LOAEL (mouse [18]) was over 0.0667 mg/kg/day and the NEL (mouse [18]) was under 0.0667 mg/kg/day. The NOAEL (mouse [18]) was at least 0.0667 mg/kg/day, the LEL (mouse [19]) was 1.33 mg/kg/day and the LOAEL (mouse [19]) was over 1.33 mg/kg/day. It also gave an NEL (mouse [19]) of under 1.33 mg/kg/day and an NOAEL (mouse [19]) of at least 1.33 mg/kg/day.
